Test results as given in the NIST ThermoML archive (doi:10.1021/acs.jced.5b00936).

Key:
[1] = for viscosity / mass density: 100 kPa, Liquid; for viscosity: Concentric cylinders viscometry; for mass density: Vibrating tube method; for Triple point temperature: Crystal, DSC
[2] = refractive index (Na D-line) (dimensionless); settings: 100 kPa, Liquid, Standard Abbe refractometry

CCCC[N+](CCCC)(CCCC)CCCC.O=S(=O)([O-])CC(O)CNC1CCCCC1
Settings | mass density, [1] [kg/m3] | refractive index, [2] | viscosity, [1] [mPa·s]
308.15 K | 1020.4 | 1.48329 | 41227
313.15 K | 1017.3 | 1.48189 | 22114
318.15 K | 1014.4 | 1.48037 | 12579
323.15 K | 1011.5 | 1.47937 | 7480.4
328.15 K | 1008.6 | 1.47772 | 4609.3
333.15 K | 1005.7 | 1.47617 | 2935.7
338.15 K | 1002.8 | 1.47449 | 1926.8
343.15 K | 999.9 | 1.47291 | 1299.4
348.15 K | 997.2 | 1.47137 | 898.5
353.15 K | 994.3 | 1.46985 | 635.7

CCCC[N+](CCCC)(CCCC)CCCC.O=S(=O)([O-])CC(O)CN1CCOCC1 [tetrabutylammonium 2-hydroxy-3-morpholinopropanesulfonate]
Settings | mass density, [1] [kg/m3] | refractive index, [2] | viscosity, [1] [mPa·s]
308.15 K | 1051.2 | 1.48328 | 34148
313.15 K | 1048.2 | 1.48188 | 18392
318.15 K | 1045.3 | 1.48038 | 10603
323.15 K | 1042.3 | 1.47873 | 6381.1
328.15 K | 1039.4 | 1.47693 | 3976.3
333.15 K | 1035.8 | 1.47525 | 2571.7
338.15 K | 1033.1 | 1.47377 | 1702.9
343.15 K | 1030.4 | 1.47242 | 1158.3
348.15 K | 1027.6 | 1.47111 | 807.1
353.15 K | 1024.7 | 1.46984 | 574.9

C[N+](C)(C)CCO.O=S(=O)([O-])CC(O)CN1CCOCC1 (configuration not stated)
Settings | mass density, [1] [kg/m3] | refractive index, [2] | viscosity, [1] [mPa·s]
308.15 K | 1235.3 | 1.49778 | 49189
313.15 K | 1232 | 1.49658 | 28090
318.15 K | 1228.7 | 1.49531 | 16897
323.15 K | 1225.6 | 1.49453 | 10898
328.15 K | 1222.5 | 1.49323 | 6933.2
333.15 K | 1219.5 | 1.49185 | 4600.3
338.15 K | 1216.5 | 1.48995 | 3099.4
343.15 K | 1213.5 | 1.48831 | 2158.8
348.15 K | 1211.6 | 1.48671 | 1545.5
353.15 K | 1209.7 | 1.4852 | 1122.3

C[N+](C)(C)CCO.O=S(=O)([O-])CC(O)CNC1CCCCC1 (configuration not stated)
Settings | Triple point temperature [K]
[1] | 365.15

CCCC[N+](CCCC)(CCCC)CCCC.O=S(=O)([O-])CCN(CCO)CCO
Settings | mass density, [1] [kg/m3] | refractive index, [2] | viscosity, [1] [mPa·s]
288.15 K | – | 1.49093 | –
293.15 K | – | 1.48966 | –
298.15 K | – | 1.48834 | –
303.15 K | – | 1.48706 | –
308.15 K | – | 1.48577 | –
313.15 K | 1052.4 | 1.48445 | 12001
318.15 K | 1049.6 | 1.48317 | 7582.5
323.15 K | 1046.8 | 1.48185 | 4970.6
328.15 K | 1044 | 1.48052 | 3346.6
333.15 K | 1041.2 | 1.4792 | 2305.7
338.15 K | 1038.4 | 1.47784 | 1621.8
343.15 K | 1035.6 | 1.47646 | 1163.2
348.15 K | 1032.8 | 1.47502 | 848.3
353.15 K | 1030.1 | 1.47363 | 630

CCCC[P+](CCCC)(CCCC)CCCC.O=S(=O)([O-])CC(O)CNC(CO)(CO)CO
Settings | Triple point temperature [K]
[1] | 369.15

CCCC[N+](CCCC)(CCCC)CCCC.O=S(=O)([O-])CC(O)CNC(CO)(CO)CO
Settings | Triple point temperature [K]
[1] | 364.15

CCCC[P+](CCCC)(CCCC)CCCC.O=S(=O)([O-])CC(O)CN1CCOCC1 [tetrabutylphosphonium 2-hydroxy-3-morpholinopropanesulfonate]
Settings | mass density, [1] [kg/m3] | refractive index, [2] | viscosity, [1] [mPa·s]
288.15 K | 1062.9 | 1.4959 | 22869
293.15 K | 1059.9 | 1.49447 | 12430
298.15 K | 1056.8 | 1.49299 | 7312.9
303.15 K | 1053.7 | 1.49152 | 4493.6
308.15 K | 1050.5 | 1.48999 | 2859.8
313.15 K | 1047.5 | 1.48836 | 1889.2
318.15 K | 1044.4 | 1.4866 | 1277
323.15 K | 1041.3 | 1.48573 | 886.7
328.15 K | 1038.2 | 1.4841 | 630.4
333.15 K | 1035.1 | 1.48239 | 457.8
338.15 K | 1032.1 | 1.48069 | 339.2
343.15 K | 1029.1 | 1.47908 | 255.6
348.15 K | 1026.2 | 1.47761 | 195.8
353.15 K | – | 1.47622 | 152.3

CCCC[P+](CCCC)(CCCC)CCCC.O=S(=O)([O-])CC(O)CNC1CCCCC1
Settings | mass density, [1] [kg/m3] | refractive index, [2] | viscosity, [1] [mPa·s]
288.15 K | 1037.4 | 1.49654 | 32956
293.15 K | 1034.2 | 1.49497 | 17587
298.15 K | 1031.1 | 1.49313 | 10098
303.15 K | 1028.2 | 1.49162 | 6481.6
308.15 K | 1025.1 | 1.48983 | 3796
313.15 K | 1022.1 | 1.48782 | 2441.9
318.15 K | 1019 | 1.48724 | 1624.2
323.15 K | 1016 | 1.48547 | 1109.7
328.15 K | 1012.9 | 1.48368 | 779.6
333.15 K | 1009.8 | 1.48202 | 558.2
338.15 K | 1006.8 | 1.48045 | 409
343.15 K | 1003.8 | 1.47902 | 304.6
348.15 K | 1000.9 | 1.47764 | 231
353.15 K | 997.9 | 1.4763 | 177.9

C[N+](C)(C)CCO.O=S(=O)([O-])CCN(CCO)CCO
Settings | mass density, [1] [kg/m3] | refractive index, [2] | viscosity, [1] [mPa·s]
293.15 K | 1248 | – | 33236
298.15 K | 1244.8 | 1.50047 | 20518
303.15 K | 1241.8 | 1.49937 | 13056
308.15 K | 1238.9 | 1.49826 | 8631.6
313.15 K | 1236.1 | 1.49716 | 5848.4
318.15 K | 1233.3 | 1.49602 | 4045.8
323.15 K | 1230.5 | 1.49476 | 2861
328.15 K | 1227.7 | 1.49317 | 2061.7
333.15 K | 1224.9 | 1.49148 | 1526.8
338.15 K | 1222.2 | 1.49052 | 1136.6
343.15 K | 1219.5 | 1.48921 | 858.1
348.15 K | 1216.8 | 1.48749 | 658.8
353.15 K | 1214.1 | 1.48633 | 512.7

CCCC[P+](CCCC)(CCCC)CCCC.O=S(=O)([O-])CCN(CCO)CCO
Settings | mass density, [1] [kg/m3] | refractive index, [2] | viscosity, [1] [mPa·s]
288.15 K | 1066.8 | 1.49778 | 41313
293.15 K | 1063.9 | 1.4964 | 24078
298.15 K | 1061 | 1.49502 | 14082
303.15 K | 1058.1 | 1.49365 | 8504.9
308.15 K | 1055.3 | 1.49333 | 5315.8
313.15 K | 1052.4 | 1.49198 | 3370.9
318.15 K | 1049.6 | 1.49061 | 2199.4
323.15 K | 1046.8 | 1.48921 | 1356.9
328.15 K | 1044 | 1.48744 | 871
333.15 K | 1041.2 | 1.4859 | 611.8
338.15 K | 1038.4 | 1.48437 | 458.9
343.15 K | 1035.6 | 1.48287 | 352.3
348.15 K | 1032.8 | 1.48142 | 273.6
353.15 K | 1030.1 | 1.48003 | 214.5

C[N+](C)(C)CCO.O=S(=O)([O-])CC(O)CNC(CO)(CO)CO (configuration not stated)
Settings | mass density, [1] [kg/m3] | refractive index, [2] | viscosity, [1] [mPa·s]
323.15 K | – | 1.50991 | –
328.15 K | 1316.4 | 1.50884 | 56778
333.15 K | 1313.3 | 1.50769 | 34168
338.15 K | 1310.3 | 1.50654 | 21501
343.15 K | 1307.4 | 1.50552 | 14013
348.15 K | 1304.6 | 1.5044 | 9355.9
353.15 K | 1301.8 | 1.50327 | 6385.4
